Laboratory results taken from patent US20100330677A1, “Improved Reprogramming of Mammalian Cells, and Cells Obtained” (Cambridge Enterprise Limited, priority 2008, published 2010).

Tests used:
[1] = tested on: Oct4-GFP expressing I-iPS cells; assay: Oct4-GFP reporter activity of partially reprogrammed cells cultured in Fgf2 and activin, with activin receptor inhibitor; assay type: cell-based, mouse; settings: serum free
Excerpt: Culture of FACS purified GFP expressing incomplete (I) iPS cells in Fgf2 and activin (left) and subsequently on addition of activin receptor inhibitor SB431542 (right). To further investigate the phenotype of these partially reprogrammed cells we assessed Oct4 reporter activity in different culture environments. In conventional ES cell culture using the self renewal cytokine Leukaemia Inhibitory Factor (LIF) and serum in presence or absence of feeders, Oct4-GFP expression was not maintained. In contrast, reporter expression stabilized when cells were cultured serum free in the presence of Fgf2 and activin (FIG. 2). These are conditions used for the propagation of EpiSCs derived from post-implantation embryos (Brons et al., 2007; Tesar et al., 2007). […] We conclude that NS cells are efficiently converted by the reprogramming factors into a heterogeneous cell population with certain properties of EpiSCs rather than ES cells.

pre-iPS cells = assay: Adding inhibitors to pre-iPS cells in the presence of foetal calf serum plus LIF; assay type: cell-based, mouse; settings: for effect on Oct4-GFP activation: foetal calf serum plus LIF, inhibitor alone
Excerpt: We also examined the effect of adding inhibitors in the presence of foetal calf serum plus LIF. The addition of 2i induced stable activation of Oct4-GFP in around 10% of emerging colonies. […] The reduced frequency compared with serum-free 2i culture may be because the ability of PD0325901 to suppress Erk activation is counteracted by serum factors.

Structure (SMILES) | effect of inhibitor on Oct4-GFP reporter activity and cells [1] | effect on Oct4-GFP activation (pre-iPS cells) | expression of Nanog and Rex1 (pre-iPS cells; cells expanded in serum and LIF)
NC(=O)c1ccc(-c2nc(-c3ccc4c(c3)OCO4)c(-c3ccccn3)[nH]2)cc1 [SB43154212, SB431542] | loss of reporter activity, cell death and differentiation |  | 
Cc1c[nH]c(-c2cnc(NCCNc3ccc(C#N)cn3)nc2-c2ccc(Cl)cc2Cl)n1 [GSK3 inhibitor, CHIR99021] |  | no discernible effect | 
O=C(NOC[C@H](O)CO)c1ccc(F)c(F)c1Nc1ccc(I)cc1F [MEK inhibitor, PD0325901] |  | comparable to 2i | acquired expression of Nanog and Rex1
